Molecules are shown by their SMILES. pIC50: −log10 of the molar value.

For this test, the target named is T1, human TLR7 (Homo sapiens, UniProt Q9NYK1).
T1 construct: host or cells: HEK293 (HEK-Blue hTLR7)
T1 sequence (Q9NYK1 27-1049): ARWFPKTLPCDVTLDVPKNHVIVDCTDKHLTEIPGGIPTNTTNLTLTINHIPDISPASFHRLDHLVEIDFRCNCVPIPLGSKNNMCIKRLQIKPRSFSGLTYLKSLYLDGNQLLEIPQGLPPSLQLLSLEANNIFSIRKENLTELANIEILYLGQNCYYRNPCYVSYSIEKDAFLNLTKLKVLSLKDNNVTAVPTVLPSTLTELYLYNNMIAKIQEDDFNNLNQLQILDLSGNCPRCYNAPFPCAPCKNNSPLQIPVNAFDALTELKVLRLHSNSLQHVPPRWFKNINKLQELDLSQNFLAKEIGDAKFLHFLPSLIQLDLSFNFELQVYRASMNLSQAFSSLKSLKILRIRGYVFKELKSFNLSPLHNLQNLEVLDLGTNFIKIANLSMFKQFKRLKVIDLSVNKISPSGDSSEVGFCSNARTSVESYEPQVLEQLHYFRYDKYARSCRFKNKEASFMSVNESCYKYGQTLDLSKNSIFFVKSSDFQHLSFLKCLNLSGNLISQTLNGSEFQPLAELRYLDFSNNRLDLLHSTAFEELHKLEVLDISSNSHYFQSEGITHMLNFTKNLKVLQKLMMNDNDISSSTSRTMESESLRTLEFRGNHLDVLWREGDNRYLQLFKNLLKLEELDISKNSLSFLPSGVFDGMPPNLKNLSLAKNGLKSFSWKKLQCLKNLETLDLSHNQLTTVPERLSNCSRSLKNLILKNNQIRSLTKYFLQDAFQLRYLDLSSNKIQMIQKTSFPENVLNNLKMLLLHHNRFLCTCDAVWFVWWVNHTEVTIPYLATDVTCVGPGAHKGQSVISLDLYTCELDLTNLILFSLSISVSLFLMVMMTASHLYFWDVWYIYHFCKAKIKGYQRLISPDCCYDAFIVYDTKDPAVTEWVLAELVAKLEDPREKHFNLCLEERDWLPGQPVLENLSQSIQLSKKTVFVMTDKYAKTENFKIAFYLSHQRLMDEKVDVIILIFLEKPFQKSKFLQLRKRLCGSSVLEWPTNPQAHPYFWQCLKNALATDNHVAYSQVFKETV
Kind of test: HEK293-Blue-hTLR-7 cells assay (SEAP reporter, R848 stimulation). It counts as cell-based. The following applies: HEK293-Blue-hTLR7 cells, R848, 20 hrs; read-out: HEK/hTLR7 IC50. The method, boiled down:
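Stable HEK293-Blue-hTLR7 cells (NF-κB/AP-1-driven SEAP reporter) were co-incubated with serially diluted compound (1% DMSO final) and R848 for 20 hrs at 37 °C. Supernatant SEAP was developed with QUANTI-Blue substrate for 2 hrs at 37 °C and absorbance read at 620–655 nm; antagonism seen as reduced reporter signal.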
Take `Cc1cc(N2Cc3ccc(OC[C@H]4CNCCN4)cc3[C@@H](C)C2)c2cnn(C)c2n1` [Example 30, (4R)-2-(1,6-dimethylpyrazolo[3,4-b]pyridin-4-yl)-4-methyl-6-[[(2R)-piperazin-2-yl]methoxy]-3,4-dihydro-1H-isoquinoline]: the pIC50 is 7.43.

As for `CO[C@@H]1CN(c2cc3c(cn2)CN(c2cc(C)nc4c2cnn4C)C[C@@H]3C)C[C@H]1N` [Example 78, (3R,4R)-4-methoxy-1-[(5R)-7-(1,6-dimethylpyrazolo[3,4-b]pyridin-4-yl)-5-methyl-6,8-dihydro-5H-2,7-naphthyridin-3-yl]pyrrolidin-3-amine], the pIC50 is 7.35.

For the molecule `Cc1cc(N2Cc3cnc(N4CCNCC4)cc3[C@@H](C)C2)c2cnn(C)c2n1` [Example 74, (4R)-2-(1,6-dimethylpyrazolo[3,4-b]pyridin-4-yl)-4-methyl-6-piperazin-1-yl-3,4-dihydro-1H-2,7-naphthyridine], the pIC50 was 8.22.

Consider `C[C@H]1CN(c2ccnc3c2cnn3C)Cc2ccc(N3CC4(CCNCC4)CC3=O)cc21` [Example 16, 2-[(4R)-4-methyl-2-(1-methylpyrazolo[3,4-b]pyridin-4-yl)-3,4-dihydro-1H-isoquinolin-6-yl]-2,8-diazaspiro[4.5]decan-3-one], for which the pIC50 is 8.30.

Turning to `Cc1cc(N2Cc3ccc(N4CCC(N(C)C)CC4)nc3[C@@H](C)C2)c2cnn(C)c2n1` [Example 60, N,N-dimethyl-1-[(8S)-6-(1,6-dimethylpyrazolo[3,4-b]pyridin-4-yl)-8-methyl-7,8-dihydro-5H-1,6-naphthyridin-2-yl]piperidin-4-amine], the pIC50 is 8.52.

As for `CC1CN(c2ccc3c(c2)[C@@H](C)CN(c2ccnc4c2cnn4C)C3)CCN1` (stereo partly drawn) [Example 15, (4R)-4-methyl-6-(3-methylpiperazin-1-yl)-2-(1-methylpyrazolo[3,4-b]pyridin-4-yl)-3,4-dihydro-1H-isoquinoline], the pIC50 is 8.40.

For the molecule `Cc1cc(N2Cc3cnc(N4CCNC5(CC5)C4)cc3[C@@H](C)C2)c2cnn(C)c2n1` [Example 75, (4R)-6-(4,7-diazaspiro[2.5]octan-7-yl)-2-(1,6-dimethylpyrazolo[3,4-b]pyridin-4-yl)-4-methyl-3,4-dihydro-1H-2,7-naphthyridine], the pIC50 was 8.00.

For the molecule `COC[C@H]1CN(c2cc3c(cn2)CN(c2cc(C)nc4c2cnn4C)C[C@@H]3C)CCN1` [Example 81, (4R)-2-(1,6-dimethylpyrazolo[3,4-b]pyridin-4-yl)-4-methyl-6-[(3R)-3-(methoxymethyl)piperazin-1-yl]-3,4-dihydro-1H-2,7-naphthyridine], the pIC50 was 7.39.

`Cn1ncc2c(N3Cc4ccc(N5CCC6(CCNCC6)CC5)cc4C(C)(C)C3)ccnc21` [Example 6, 3-[4,4-dimethyl-2-(1-methylpyrazolo[3,4-b]pyridin-4-yl)-1,3-dihydroisoquinolin-6-yl]-3,9-diazaspiro[5.5]undecane]: the pIC50 is 7.59.

With `C[C@H]1CN(c2ccnc3c2cnn3C)Cc2ccc(N3C4CCC3CNC4)cc21` [Example 27, (4R)-6-(3,8-diazabicyclo[3.2.1]octan-8-yl)-4-methyl-2-(1-methylpyrazolo[3,4-b]pyridin-4-yl)-3,4-dihydro-1H-isoquinoline], the pIC50 is 8.40.

Take `C[C@H]1CN(c2ccnc3c2cnn3C)Cc2ccc(N3C[C@]4(CCNC4)CC3=O)cc21` (single isomer, unassigned) [Example 54]: the pIC50 is 7.28.

`Cc1cc(N2Cc3ccc(OC[C@@H]4CNCCN4)cc3[C@@H](C)C2)c2cnn(C)c2n1` [Example 31, (4R)-2-(1,6-dimethylpyrazolo[3,4-b]pyridin-4-yl)-4-methyl-6-[[(2S)-piperazin-2-yl]methoxy]-3,4-dihydro-1H-isoquinoline]: the pIC50 is 7.62.

On to `C[C@H]1CN(c2ccnc3c2cnn3C)Cc2ccc(N3CCN(C(=O)C4CCNCC4)CC3)cc21` [Example 7, 4-piperidyl-[4-[(4R)-4-methyl-2-(1-methylpyrazolo[3,4-b]pyridin-4-yl)-3,4-dihydro-1H-isoquinolin-6-yl]piperazin-1-yl]methanone], for which the pIC50 was 7.74.

For the molecule `C[C@H]1CN(c2ccnc3c2cnn3C)Cc2ccc(OC[C@@H]3CNCCN3)cc21` [Example 19, (4R)-4-methyl-2-(1-methylpyrazolo[3,4-b]pyridin-4-yl)-6-[[(2S)-piperazin-2-yl]methoxy]-3,4-dihydro-1H-isoquinoline], the pIC50 is 8.10.

On to `C[C@H]1CN(c2ccnc3c2cnn3C)Cc2ccc(N3CC4CNC[C@H]4C3=O)cc21` (relative stereo) [Example 17, cis-5-[(4R)-4-methyl-2-(1-methylpyrazolo[3,4-b]pyridin-4-yl)-3,4-dihydro-1H-isoquinolin-6-yl]-1,2,3,3a,6,6a-hexahydropyrrolo[3,4-c]pyrrol-4-one], for which the pIC50 is 8.10.

On to `C[C@H]1CN(c2ccnc3c2cnn3C)Cc2ccc(N3C[C@@H]4CNCCN4C3=O)cc21` [Example 25, (8aS)-2-[(4R)-4-methyl-2-(1-methylpyrazolo[3,4-b]pyridin-4-yl)-3,4-dihydro-1H-isoquinolin-6-yl]-1,5,6,7,8,8a-hexahydroimidazo[1,5-a]pyrazin-3-one], for which the pIC50 is 7.82.

`C[C@H]1CN(c2ccnc3c2cnn3C)Cc2ccc(OCCN3CCNCC3)cc21` [Example 40, (4R)-4-methyl-2-(1-methylpyrazolo[3,4-b]pyridin-4-yl)-6-(2-piperazin-1-ylethoxy)-3,4-dihydro-1H-isoquinoline]: the pIC50 is 8.10.

For `C[C@H]1CN(c2ccnc3c2cnn3C)Cc2ccc(N3CCC(O)(CN(C)C)CC3)cc21` [Example 13, 4-[(dimethylamino)methyl]-1-[(4R)-4-methyl-2-(1-methylpyrazolo[3,4-b]pyridin-4-yl)-3,4-dihydro-1H-isoquinolin-6-yl]piperidin-4-ol], the pIC50 is 8.15.

Consider `C[C@H]1CN(c2ccnc3c2cnn3C)Cc2ccc(N3CC4(CNC4)CC3=O)cc21` [Example 34, 6-[(4R)-4-methyl-2-(1-methylpyrazolo[3,4-b]pyridin-4-yl)-3,4-dihydro-1H-isoquinolin-6-yl]-2,6-diazaspiro[3.4]octan-7-one], for which the pIC50 was 7.59.

Turning to `CO[C@@H]1CN(c2ccc3c(n2)[C@@H](C)CN(c2cc(C)nc4c2cnn4C)C3)C[C@H]1N` [Example 63, (3R,4R)-4-methoxy-1-[(8S)-6-(1,6-dimethylpyrazolo[3,4-b]pyridin-4-yl)-8-methyl-7,8-dihydro-5H-1,6-naphthyridin-2-yl]pyrrolidin-3-amine], the pIC50 is 8.30.

Consider `CO[C@@H]1CN(C2CCN(c3ccc4c(c3)[C@@H](C)CN(c3ccnc5c3cnn5C)C4)CC2)C[C@H]1N` [Example 11, (3R,4R)-4-methoxy-1-[1-[(4R)-4-methyl-2-(1-methylpyrazolo[3,4-b]pyridin-4-yl)-3,4-dihydro-1H-isoquinolin-6-yl]-4-piperidyl]pyrrolidin-3-amine], for which the pIC50 was 8.70.

Take `Cc1cc(N2Cc3ccc(N4CCC(O)(CN(C)C)CC4)nc3[C@@H](C)C2)c2cnn(C)c2n1` [Example 61, 4-[(dimethylamino)methyl]-1-[(8S)-6-(1,6-dimethylpyrazolo[3,4-b]pyridin-4-yl)-8-methyl-7,8-dihydro-5H-1,6-naphthyridin-2-yl]piperidin-4-ol]: the pIC50 is 8.52.

For `Cn1ncc2c(N3CCc4cc(N5CCNCC5)ccc4C3)ccnc21` [Example 3, 2-(1-methylpyrazolo[3,4-b]pyridin-4-yl)-6-piperazin-1-yl-3,4-dihydro-1H-isoquinoline], the pIC50 is 7.72.

Take `C[C@H]1CN(c2ccnc3c2cnn3C)Cc2ccc(N3CC4(CCNCC4)OC3=O)cc21` [Example 26, 3-[(4R)-4-methyl-2-(1-methylpyrazolo[3,4-b]pyridin-4-yl)-3,4-dihydro-1H-isoquinolin-6-yl]-1-oxa-3,8-diazaspiro[4.5]decan-2-one]: the pIC50 is 8.15.

Turning to `Cc1cc(N2Cc3ccc(N4CCNCC4)cc3[C@@H](C)C2)c2cnn(C)c2n1` [Example 2, (4R)-2-(1,6-dimethylpyrazolo[3,4-b]pyridin-4-yl)-4-methyl-6-piperazin-1-yl-3,4-dihydro-1H-isoquinoline], the pIC50 is 8.10.

`Cc1cc(N2Cc3ccc(N4CCOC5(CNC5)C4)nc3[C@@H](C)C2)c2cnn(C)c2n1` [Example 70, 8-[(8S)-6-(1,6-dimethylpyrazolo[3,4-b]pyridin-4-yl)-8-methyl-7,8-dihydro-5H-1,6-naphthyridin-2-yl]-5-oxa-2,8-diazaspiro[3.5]nonane]: the pIC50 is 7.44.
